# In patent US4794169A, “Pentapeptides with cell growth regulatory effects and a process for the preparation thereof” (Bio-Tech A/S, priority 1985, dated 1988):
# Square brackets hold non-standard residues; d marks the D form. Peptide text beside a SMILES is read from it. pGlu = O=C1CC[C@@H](C(=O)O)N1
# Test system: mouse epidermal mitotic rate
# Assay: Change in mouse epidermal mitotic rate after intraperitoneal injection (Colcemid method)
# Assay type: in vivo
# Details: mouse epidermis, first three hours after i.p. injection, vs control animals from same cage
# Protocol: In the following Table 1 in vivo results (change in mouse epidermal mitotic rate) have been described as example for four different new pentapeptides. The epidermal mitotic rate was measured for the first three hours after intraperitoneal injection of the new pentapeptides. Mitotic rate was determined by means of "Colcemid" (Demecolcine). A reduced rate was determined as a percentage in comparison with control animals from the same cage.
smiles,measurement,setting,value
"O=C(O)CC[C@H](NC(=O)[C@@H]1CCC(=O)N1)C(=O)N[C@@H](CC(=O)O)C(=O)N[C@@H](CO)C(=O)NCC(=O)O [Compound 1, pGlu--Glu--Asp--Ser--Gly] ([pGlu]EDSG-OH)",Decrease in mitotic rate %,10^-11 -10^-14 moles of peptide injected per mouse,40-44%
"NC(=O)CC[C@H](NC(=O)[C@@H]1CCC(=O)N1)C(=O)N[C@@H](CC(=O)O)C(=O)N[C@@H](CO)C(=O)NCC(=O)O [Compound 2, pGlu--Gln--Asp--Ser--Gly] ([pGlu]QDSG-OH)",Decrease in mitotic rate %,10^-11 moles of peptide injected per mouse,39%
"C[C@H](NC(=O)[C@H](CC(=O)O)NC(=O)[C@H](CCC(=O)O)NC(=O)[C@@H]1CCC(=O)N1)C(=O)NCC(=O)O [Compound 3, pGlu--Glu--Asp--Ala--Gly] ([pGlu]EDAG-OH)",Decrease in mitotic rate %,10^-13 moles of peptide injected per mouse,36%
